PubChem BioAssay (NCI)
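All cell lines were grown in 96-well plates and treated with compound for 48 hours. TGI denotes the concentration required for complete inhibition of growth.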

Tests used:
Assay in all cases: growth of human tumour cells (NCI), 48 h
[1] = system: 786-0 renal
[2] = system: A498 renal
[3] = system: A549 NSCLC
[4] = system: ACHN renal
[5] = system: BT-549 breast
[6] = system: CAKI-1 renal
[7] = system: CCRF-CEM leukemia
[8] = system: COLO 205 colon
[9] = system: DU-145 prostate
[10] = system: EKVX NSCLC
[11] = system: HCC-2998 colon
[12] = system: HCT-116 colon
[13] = system: HCT-15 colon
[14] = system: HL-60(TB) leukemia
[15] = system: HOP-62 NSCLC
[16] = system: HOP-92 NSCLC
[17] = system: HS 578T breast
[18] = system: HT29 colon
[19] = system: IGROV1 ovarian
[20] = system: K-562 leukemia
[21] = system: KM12 colon
[22] = system: LOX IMVI melanoma
[23] = system: M14 melanoma
[24] = system: MALME-3M melanoma
[25] = system: MCF7 breast
[26] = system: MDA-MB-231 breast
[27] = system: MDA-MB-435
[28] = system: MDA-N
[29] = system: MOLT-4 leukemia
[30] = system: NCI-H226 lung
[31] = system: NCI-H23 lung
[32] = system: NCI-H460 lung
[33] = system: NCI-H522 lung
[34] = system: NCI/ADR-RES ovarian
[35] = system: OVCAR-3 ovarian
[36] = system: OVCAR-4 ovarian
[37] = system: OVCAR-5 ovarian
[38] = system: OVCAR-8 ovarian
[39] = system: PC-3 prostate
[40] = system: RPMI-8226 leukemia
[41] = system: RXF 393 renal
[42] = system: SF-268 CNS
[43] = system: SF-295 CNS
[44] = system: SF-539 CNS
[45] = system: SK-MEL-2 melanoma
[46] = system: SK-MEL-28 melanoma
[47] = system: SK-MEL-5 melanoma
[48] = system: SK-OV-3 ovarian
[49] = system: SN12C renal
[50] = system: SNB-19 CNS
[51] = system: SNB-75 CNS
[52] = system: SR leukemia
[53] = system: SW-620 colon
[54] = system: T-47D breast
[55] = system: TK-10 renal
[56] = system: U251 CNS
[57] = system: UACC-257 melanoma
[58] = system: UACC-62 melanoma
[59] = system: UO-31 renal

Measured: TGI

COc1ccc(CNC(=O)[C@H](Cc2ccc(O)cn2)NC(C)=O)cc1OC
> 100 µM: all assays above
